Numbers after ± are expanded uncertainties.
How the values were obtained:
[1] = Liquid; for mass density: 298.15 K, 101.33 kPa, Vibrating tube method; for Normal boiling temperature: Distillation
[2] = refractive index (Na D-line) (dimensionless); settings: 298.15 K; 101.33 kPa; Liquid; Standard Abbe refractometry

Structure (SMILES)	mass density [1] [kg/m3]	Normal boiling temperature [1] [°C]	refractive index [2]
OCC(O)CO [glycerol]	1258.52 ± 0.19	289.90 ± 0.41	1.4726 ± 0.0005
OCCO [1,2-ethanediol]	–	197.12 ± 0.41	1.4308 ± 0.0005
CCO [ethanol]	785.18 ± 0.15	77.90 ± 0.41	1.3594 ± 0.0005
O [water]	–	100.00 ± 0.41	1.3325 ± 0.0005

— the NIST ThermoML archive (doi:10.1016/j.fluid.2012.12.022)
